Laboratory results as given in patent EP4538272B1, “CRYSTAL OF N-(BENZOYL)-PHE[…], AND PHARMACEUTICAL COMPOSITION THEREOF, AND PREPARATION METHOD THEREFOR AND USE THEREOF” (Hangzhou Apeloa Medicine Research Institute Co., Ltd., priority 2022, dated 2023).
Converted amounts (≈) assume the structure as drawn.

Key:
Assay type in all cases: physicochemical
[1] = Solid-state stability test (high temperature, high humidity, light exposure, acceleration); purity by HPLC, crystal form by XRPD; conditions: for change in the purity and form: 15 days under 60°C, 92.5% RH, 4500lux and 40°C/75% RH, respectively
Procedure: (§1) Put an appropriate amount of the test sample (the compound shown by Formula (I) in the form of Crystal Form A) on a watch glass, spread it into a thin layer ≤ 5mm thick, and place it under a high temperature of 60°C, a high humidity of 92.5% RH, a light exposure of 4500lux and an acceleration condition of 40°C/75% RH for 15 days, respectively. Sample on the 7th and 15th day to observe the color change of the samples. Analyze the sample purity and crystal form through HPLC and XPRD detection, respectively. Table 5. Test results of Crystal Form A and amorphous stability
as §1, with “(II)” for “(I)”, “B)” for “A)”, “the” for “the 7th and”, “sample.” for “samples.”, “8.” for “5.”, “B” for “A and amorphous”

[2] = Hygroscopicity test with dynamic moisture absorber (DVS); conditions: for Weight gain at 80% RH: 25°C; for hygroscopicity (according to the definition criteria for hygroscopic weight gain): based on weight gain at 80% RH
Procedure: The hygroscopicity results in the present invention can be measured using a DVS Intrinsic dynamic moisture and gas absorber from Surface Measurement Systems of the UK. Humidity variation: 50%-95%-0%-50%. The humidity change for each gradient within0% ~ 90% is 10%. Airflow: 200ml/min; temperature: 25°C; testing point: one testing point taken every 10% increase in humidity.
Take an appropriate amount of the test sample (the compound shown by Formula (I) in the form of Crystal Form A) to test its hygroscopicity with a dynamic moisture absorber. Table 4. Hygroscopicity test results for Crystal Form A of the present invention
Take an appropriate amount of the test sample (the compound shown by Formula (II) in the form of Crystal Form B) to test its hygroscopicity with a dynamic moisture absorber. Table 7. Hygroscopicity test results for Crystal Form B of the present invention

[3] = Solubility test in biological media (FaSSIF, FeSSIF), HPLC detection; conditions: for solubility (result in words): in FeSSIF and FaSSIF; for solubility at 0.5 h / solubility at 2 h / solubility at 24 h: 37°C
Procedure: (§2) Add 20mg of the sample (the compound shown by Formula (I) in the form of Crystal Form A) into a 10ml conical tube, and then add 4ml of water or biological medium (FeSSIF (pH 5.0) or FaSSIF (pH 6.5)), respectively. Shake the solution at 37°C for 24h in a constant temperature bath at 1000rpm, and take samples at 0.5h, 2h and 24h, respectively. Filter the samples through an aquo-system microporous filter membrane and discard the initial filtrate to obtain the test solution.
Perform an HPLC detection for the test solution (20µL), and calculate the sample concentration according to the standard curve method. Table 3. Solubility test results of Crystal Form A in different media
as §2, with “(II)” for “(I)”, “B)” for “A)”
Perform an HPLC detection for the test solution (20µL), and calculate the sample concentration according to the standard curve method. Table 6. Solubility test results of Crystal Form B in different media

Row | SMILES | purity ([1]; Acceleration 40°C/75%RH, 15d) [%] | purity ([1]; High humidity 92.5%RH, 15d) [%] | purity ([1]; High temperature 60°C, 15d) [%] | purity ([1]; Light exposure 4500lux, 15d) [%] | change in the purity and form [1] | Form (crystal form by XRPD) ([1]; Acceleration 40°C/75%RH, 15d) | Form (crystal form by XRPD) ([1]; High humidity 92.5%RH, 15d) | Form (crystal form by XRPD) ([1]; High temperature 60°C, 15d) | Form (crystal form by XRPD) ([1]; Light exposure 4500lux, 15d) | Weight gain at 80% RH [2] [%] | hygroscopicity (according to the definition criteria for hygroscopic weight gain) [2] | solubility (result in words) [3] | also measured
1 | O=C(N[C@@H](Cc1ccc(N2C(=O)C3(CC3)c3ccc(F)c(F)c32)cc1)C(=O)O)c1c(F)cccc1Cl [Amorphous, (S)-2-(2-chloro-6-fluorobenzoyl amido)-3-(4-(6',7'-difluoro-2'-oxospiro [cyclopropane-1,3'-indoline]-1'-yl)phenyl) propionic acid] | 89.70 | 93.06 | 91.89 | 94.91 |  |  |  |  |  |  |  |  | 
2 | O=C(N[C@@H](Cc1ccc(N2C(=O)C3(CC3)c3ccc(F)c(F)c32)cc1)C(=O)O)c1c(F)cccc1Cl [Crystal Form A, (S)-2-(2-chloro-6-fluorobenzoyl amido)-3-(4-(6',7'-difluoro-2'-oxospiro [cyclopropane-1,3'-indoline]-1'-yl)phenyl) propionic acid] | 99.4 | 99.3 | 99.4 | 99.2 | no significant change | Unchanged | Unchanged | Unchanged | Unchanged | 0.09 | no or almost no hygroscopicity | good solubility | Form (crystal form by XRPD) ([1]; Acceleration 40°C/75%RH, 7d): Unchanged; purity ([1]; Acceleration 40°C/75%RH, 7d): 99.4%; Form (crystal form by XRPD) ([1]; High humidity 92.5%RH, 7d): Unchanged; purity ([1]; High humidity 92.5%RH, 7d): 99.3%; Form (crystal form by XRPD) ([1]; High temperature 60°C, 7d): Unchanged; purity ([1]; High temperature 60°C, 7d): 99.4%; Form (crystal form by XRPD) ([1]; Light exposure 4500lux, 7d): Unchanged; purity ([1]; Light exposure 4500lux, 7d): 99.2%; solubility (result in words) ([3]; listed as Crystal form A): relatively good
3 | O=C(N[C@@H](Cc1ccc(N2C(=O)C3(CC3)c3ccc(F)c(F)c32)cc1)C(=O)O)c1c(F)cccc1Cl [Crystal Form B, (S)-2-(2-chloro-6-fluorobenzoyl amido)-3-(4-(6',7'-difluoro-2'-oxospiro [cyclopropane-1,3'-indoline]-1'-yl)phenyl) propionic acid] |  |  |  |  | no significant change | Unchanged | Unchanged | Unchanged | Unchanged | 0.71 | a slight hygroscopicity | good solubility | purity ([1]; Acceleration 40°C/75%RH, 0d): 99.79%; purity ([1]; High humidity 92.5%RH, 0d): 99.79%; purity ([1]; High temperature 60°C, 0d): 99.79%; purity ([1]; Light exposure 4500lux, 0d): 99.79%; solubility at 0.5 h ([3]; FaSSIF (pH 6.5)): 3190 µg/mL (≈ 6.19 mM); solubility at 2 h ([3]; FaSSIF (pH 6.5)): 2960 µg/mL (≈ 5.75 mM); solubility at 24 h ([3]; FaSSIF (pH 6.5)): 2790 µg/mL (≈ 5.42 mM); solubility at 0.5 h ([3]; FeSSIF (pH 5.0)): 869 µg/mL (≈ 1.69 mM); solubility at 2 h ([3]; FeSSIF (pH 5.0)): 815 µg/mL (≈ 1.58 mM); solubility at 24 h ([3]; FeSSIF (pH 5.0)): 734 µg/mL (≈ 1.43 mM); solubility (result in words) ([3]; listed as Crystal form B): relatively good
